Reference: patent US12012390B2, “Flavone compounds for the treatment and prophylaxis of hepatitis B virus disease” (priority 2018, dated 2024)

Columns and labels:
[1] = tested on: HBeAg level (surrogate marker for cccDNA) in HepDES19 cells; test: Engineered HepDES19 primary screen assay (HBeAg as surrogate marker for cccDNA); assay type: cell-based, HBV; details: Hepatitis B virus, HepDES19, 120 h, read-out: IC50 (HBeAg) in HepDES19 primary screen assay, HepDES19 cells, 5 days incubation with compound, HBeAg by ELISA
How it was run: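 HepDES19 cells were induced by Tet withdrawal for 8 days, then exposed to half-log compound dilutions (1% DMSO) for 5 days at 37° C. HBeAg, a cccDNA surrogate, was measured by ELISA; viability by CCK-8. IC50 from 4-parameter logistic fit.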

[2] = tested on: cccDNA in HepDES19 cells; test: cccDNA Southern Blot assay; assay type: cell-based, HBV; details: 5 days' compound treatment, FIG. 1
Description: HepDES19 cells were seeded at 4×10^6 cells per T150 in the culture medium (Dulbecco's Modified Eagle Medium: Nutrient Mixture F-12 [DMEM-F12, Gibco Cat. 11320-82], 10% Fetal Bovine Serum [FBS, Clontech Cat. 631101], 0.1 mM Non-Essential Amino Acids Solution [NEAA, Gibco Cat. 11140-050], 50 μg/mL Penicillin-Streptomycin [PS, Invitrogen Cat. 15140-163], 500 μg/mL Geneticin [G418, Invitrogen Cat. 10131-027]) in the absence of Tet for 8 days. These cells were seeded at the density of 1×10^6 cells per well in 6-well plate. At 24 hrs after seeding, serial dilutions of compounds made with DMSO (Sigma, Cat. D2650) were further diluted with the same culture medium as described above before they were added to the cells to reach desired final compound concentrations and 1% DMSO concentration. After 5 days' compound treatment, the cells growing in one well from 6-well plate were re-suspended with 500 μL re-suspension buffer (50 mM tris[hydroxymethyl]amino methane pH 7.5), 10 mM ethylenediaminetetraacetic acid (EDTA), 50 μg/mL RNase A [Qiagen, Cat. 158922]. 500 μL of 1.2% sodium dodecyl sulfate (SDS) was then added into the re-suspended cells to lyse the cells. After 15 minutes' incubation, 700 μL precipitation buffer (3M cesium chloride, 1M potassium acetate, 0.67M acetic acid) was added and the lysate was incubated at 4° C. for 2 h. […]

O=C(O)C1CC(OCCOc2ccc(-c3cc(=O)c4cccc(Cl)c4o3)cc2)C1 (centres unmarked) [Example 1, 3-[2-[4-(8-chloro-4-oxo-chromen-2-yl)phenoxy]ethoxy]cyclobutanecarboxylic acid]
IC50 [1]: 140 nM
cccDNA level in cccDNA Southern Blot assay [2]: dose-dependently reduced cccDNA level
